Results taken from patent US10336702B2, “Pharmaceutically active compounds” (BERGENBIO ASA, priority 2015, dated 2019).

What was measured:
[1] = test system: NSCLC cell line H2086; assay: EMT induction (Vimentin immune blotting) with TGF-β under hypoxia; type: cell-based; conditions: H2086 cells, 20 ng/ml TGF-β, 1% O2, 5 days, 1 μM compound
Description: EMT induction was evaluated by quantification of the EMT marker Vimentin. NSCLC H2086 cells were treated with 20 ng/ml TGF-β under hypoxic conditions (1% O2) for 5 days. The effect on Vimentin was evaluated by immune blotting for cells treated with Vehicle (DMSO), 1 μM EX33 or 1 μM EX34, and the results are shown in FIG. 7. Glyceraldehyde-3-phosphate dehydrogenase (GAPDH) was used as loading control. The band intensity of Vimentin has been related to the intensity of the GAPDH band.
NSCLC H2086 cells were treated with 20 ng/ml TGF-β under hypoxic conditions (1% O2) for 5 days to induce EMT. The ability of EX33 and EX34 to prevent EMT was evaluated by quantification of the EMT marker Vimentin. The effect on Vimentin was evaluated by immune blotting for cells treated with Vehicle (DMSO), 1 μM EX33 or 1 μM EX34. GAPDH was used as loading control. The band intensity of Vimentin has been related to the intensity of the GAPDH band.

[2] = test system: MDA-MB-231-D3H2LN/GPF-Luc cells; assay: Invasive 3D tumour cell growth in matrigel; type: cell-based; conditions: 2 μM, 72 hours, fluorescence microscopy
Description: The TNBC aggressive cell line MDA-MB-231-D3H2LN/GPF-Luc was seeded in matrigel on cover slides to obtain invasive 3D tumour cell colonies. Cell cultures were treated for 72 hours with DMSO (control), 2 μM EX34 or 2 μM EX33, and colonies were evaluated by fluorescence microscopy for 3D invasive growth.

[3] = test system: NSCLC cell line H2073; assay: Cell viability with paclitaxel (resazurin reduction) in paclitaxel-resistant cells; type: cell-based; conditions: paclitaxel with or without compound, 72 hours
Description: Cell viability was evaluated using resazurin reduction. Average±SEM are shown, n=3.
The NSCLC cell line H2073 was established from a patient that was resistant to treatment with paclitaxel.
H2073 cells were treated with increasing dosages of paclitaxel in the absence or presence of EX34 for 72 hours, and cell viability was evaluated using resazurin reduction. Average±SEM are shown, n=3.

[4] = test system: HMLER-Akt3 cells; assay: HMLER-Akt3 tumour seeding xenograft model; type: in vivo, NSG mice; conditions: for tumour initiation: 100 mg/kg once a day from day of implantation; for Tumour incidence (tumours formed/total number of implantations): 100 mg/kg once a day, after 2 weeks, tumours exceeding 20 mm^3
Description: HMLER cells are not very tumourigenic. However, after enforced expression of Akt3, these cells are able to initiate tumours.
Mice implanted with 10^5 or 10^6 HMLER-Akt3 cells were treated with vehicle, EX34 or EX33 at 100 mg/kg once a day. Treatment was initiated on the day of tumour cell implantation. A total of 10 tumours were implanted for each treatment condition. Tumour incidence was evaluated after 2 weeks and tumour size cut of was set at 20 mm^3. Significance determined by unpaired Student two-tailed t test.
The numbers are given as tumours formed/total number of implantations. Significance was determined by unpaired two-tailed Student t-test. Ns: not significant.

[5] = test system: TNBC cell line MDA-MB-231; assay: 3D tumour cell growth in matrigel; type: cell-based; conditions: MDA-MB-231 in matrigel, increasing concentrations, 9 days, DMSO control
Description: MDA-MD-231 cells were treated with increasing concentrations of EX34 or EX33 for 9 days. Treatment was initiated one day after tumour cell seeding. DMSO was used as control. The graphs in FIG. 2 show average tumour size±SEM following treatment with each of EX34 and EX33. Images of the 3D cultures were batch analysed with AMIDA software.
In order to evaluate the role of Akt3 in tumour cell growth and invasion, the effect of two compounds of the invention, the compound of Example 34 (denoted hereafter as EX34) and the compound of Example 33 (denoted hereafter as EX33), on 3D growth in matrigel was assessed.
The TNBC cell line MDA-MB-231 was seeded in matrigel and the cell cultures were treated with increasing concentrations of EX34 or EX33 for 9 days. Treatment was initiated one day after tumour cell seeding. DMSO was used as control. The average tumour sphere size was then evaluated for each treatment. Representative pictures are shown in FIG. 1 for each of the indicated treatment conditions.
Images of the 3D cultures were batch analysed with AMIDA software to quantify the 3D tumour sphere size.

[6] = test system: Akt3 in MDA-MB-231 cells; assay: Cellular (nuclear) localization of Akt3 by immune fluorescence microscopy; type: cell-based; conditions: 2 μM, 36 hours
Description: FIGS. 4 and 5 refer to the cellular localization of Akt3 in MDA-MB-231 cells that were treated for 36 hours with EX33 or EX34. In FIG. 4, cells were stained to visualize the nucleus (top left panel) and Akt3 (top right panel) and analyzed using immune fluorescence microscopy. […] The results were obtained using TissueQuest Software.
The cellular program of epithelial to mesenchymal transition (EMT) is utilized by tumour cells to develop drug resistance and to metastasize. Nuclear translocation of Akt3 is considered crucial for Akt3's ability to phosphorylate SNAIL and induce EMT.
MDA-MB-231 cells were treated for 36 hours with Vehicle (DMSO) or 2 μM EX34. Cells were stained to visualize the nucleus and Akt3. […] Mean intensity of Akt3 in the nucleus was evaluated after treatment with DMSO (control) or EX33 using TissueQuest Software (see FIG. 5).

[7] = test system: pAkt1, pAkt2 and pAkt3 in MCF10DCIS xenograft tumours; assay: Akt phosphorylation in MCF10DCIS xenograft tumours (SureFire); type: in vivo, mice; conditions: 25 mg/kg oral gavage once a day for 2, 4 or 6 days; pAkt1, pAkt2, pAkt3 measured
Description: Mice carrying MCF10DCIS xenograft tumours were treated with Vehicle or EX33 at 25 mg/kg once a day for 2, 4 or 6 days. Tumours were harvested and analyzed by SureFire assay for levels of pAkt1, pAkt2 and pAkt3. Average±SEM are shown, n=4.
Nude mice were injected subcutaneously with MCF10DCIS cells. When the average tumour size reached 440 mm^3, EX33 was administered at 25 mg/kg for 2, 4 or 6 days. EX33 was given by oral gavage once a day. Tumours were harvested and analyzed by SureFire assay for levels of pAkt1, pAkt2 and pAkt3. Average±SEM are shown, n=4.

[8] = test system: MDA-MB-468 cells; assay: TNBC MDA-MB-468 subcutaneous xenograft model; type: in vivo, NSG mice; conditions: 50 mg/kg b.i.d. oral gavage, 5-days on 2-days off, 19 days
Description: Tumour volumes of mice treated with vehicle or EX33 (50 mg/kg b.i.d.) were measured by caliper twice a week, over the course of 19 days. Data is given as Mean±SEM, n=6-10. Statistical analysis was performed by an unpaired two-tailed Student t test.
The MDA-MB-468 model has previously been reported in the literature to be dependent upon Akt3 for xenograft tumour growth (Chin et al., Cancer Res 2014).
NSG mice were injected subcutaneously with MDA-MB-468 cells, and the effect on tumour growth of EX33 was evaluated. EX33 was administered at 50 mg/kg, and was given by oral gavage twice a day in a 5-days on and 2-days off cycle. Tumour growth was monitored by caliper measurements twice a week.
Data are given as Mean±SEM, n=6-10. Statistical analysis was performed by unpaired two-tailed Student t test.

[9] = test system: MBBR3A human melanoma cancer cell line; assay: MBBR3A human melanoma sub-cutaneous xenograft model; type: in vivo, Nude mice; conditions: 50 mg/kg b.i.d. oral gavage, 5-days on 2-days off, 15 days
Description: Tumour volumes of mice treated with vehicle or EX33 (50 mg/kg b.i.d.) were measured by caliper twice a week, over the course of 15 days. Data is given as Mean±SEM, n=10-12. Statistical analysis was performed by an unpaired two-tailed Student t test.
Nude mice were injected subcutaneously with MBBR3A cells, and the effect on tumour growth of EX33 was evaluated. EX33 was administered at 50 mg/kg EX33 given by oral gavage twice a day in a 5-days on and 2-days off cycle. Tumour growth was monitored by caliper measurements twice a week.
Data are given as Mean±SEM, n=10-12. Statistical analysis was performed by unpaired two-tailed Student t test.

[10] = test system: hepatic stellate cell line LX2; assay: α-sma protein and mRNA levels in activated hepatic stellate cells; type: cell-based, human
Description: LX2 cells were treated for 72 hours with the indicated dosages of EX33 (μM). Cell lysates were analyzed by immune blotting for alpha-smooth muscle actin (α-SMA), PCNA and total p-Akt. Actin was used as a loading control.
LX2 cells were treated for 24 hours with the indicated dosages of EX33 (μM). mRNA was isolated and analyzed by RT-PCR for α-SMA expression. Expression level in Vehicle treated cells (0 EX33) was set to 1, and α-sma expression levels following treatment with indicated dosages of EX33 calculated relative to that.
Liver fibrosis is characterized by accumulation of extracellular matrix components such as alpha-smooth muscle actin (α-sma) mainly derived from activated hepatic stellate cells (HSCs).
The role of AKT3 in liver fibrosis was analyzed by studying the efficacy of EX33 to block HSC activation. The human activated hepatic stellate cell line LX2 was treated with different dosages of EX33 and the effects on α-sma protein and mRNA levels were analysed by immune blotting (see FIG. 9) and RT-PCR (see FIG. 10) respectively.

[11] = 10^5 HMLER-Akt3 cells implanted
[12] = 10^6 HMLER-Akt3 cells implanted

Structure (SMILES)	EMT induction (EMT marker Vimentin) [1]	invasive 3D tumour cell growth [2]	sensitivity to paclitaxel (cell viability) [3]	tumour initiation [4]	Tumour incidence (tumours formed/total number of implantations) [4, 11]	Tumour incidence (tumours formed/total number of implantations) [4, 12]	3D tumour cell growth (average tumour sphere size) [5]	nuclear localization of Akt3 [6]	level of Akt3 phosphorylation in xenograft tumours [7]	primary tumour growth (tumour volume) [8]	primary tumour growth (tumour volume) [9]	α-sma mRNA level ([10]; 24 hours, RT-PCR)	α-sma protein level ([10]; 72 hours, immune blotting)
COC(=O)N(C)[C@H]1CC[C@H](CC(=O)Nc2cnc(-c3ccc(C(C)(C)N)cc3)c(-c3ccccc3)c2)CC1 [EX34]	prevent EMT induction	inhibited tumour cell growth	sensitizes the paclitaxel resistant cell line H2073 to paclitaxel	prevented tumour initiation	3/10^ns	0/10^0.0002	dose-dependent inhibition of 3D tumour cell growth	prevents nuclear localization of Akt3					
CC(=O)N(C)[C@H]1CC[C@H](CC(=O)Nc2cc(-c3ccccc3)c(-c3ccc(C4(N)CCC4)cc3)cn2)CC1 [EX33]	prevent EMT induction	inhibited tumour cell growth		prevented tumour initiation	0/10^<0.0001	0/10^<0.0001	dose-dependent inhibition of 3D tumour cell growth	Akt3 stains cytoplasmic	selectively reduced the level of Akt3 phosphorylation	reduced tumour growth compared to vehicle treated mice	reduced tumour growth compared to vehicle treated mice	decreases the levels of α-sma mRNA and protein	decreases the levels of α-sma mRNA and protein
